Reference: patent US11357851B2, “Uses of myostatin antagonists, combinations containing them and uses thereof” (Novartis AG, priority 2015, dated 2022)

What was measured:
[1] = system: CT-26 mouse colon cancer-induced cachexia; assay: Therapeutic intervention study in CT-26 mouse colon cancer-induced cachexia (tumor-bearing mice); format: in vivo; conditions: for CT-26-induced loss in body weight: day 14, CDD866 twice weekly; for CT-26-induced muscle weight loss: tibialis anterior, gastrocnemius-soleus-plantaris complex, quadriceps; for body weight loss (of initial body weight): tumor-bearing animals, ten days after starting treatment, CDD866 20 mg/kg s.c. once weekly, cisplatin 1 mg/kg i.p. twice a week
Procedure: (§1) Adult male Balb/cJRj mice at the age of 11 to 12 weeks were purchased from Janvier Laboratories (Le Genest St Isle, France). Mice were acclimated to the facility for 7 days. Animals were housed in groups of 5 or less animals at 25° C. with a 12:12 h light-dark cycle. They were fed a standard laboratory diet containing 18.2% protein and 3.0% fat with an energy content of 15.8 MJ/kg (NAFAG 3890, Kliba, Basel, Switzerland). Food and water were provided ad libitum.
(§2) Mouse colon cancer cell line CT-26 was cultured in RPMI 1640 medium supplemented with 10% heat inactivated fetal bovine serum and antibiotic-antimycotic solution at 37° C. with 5% CO2. CT-26 cells were harvested by treatment with Accutase® (PAA Laboratories GmbH, Pasching, Austria) and suspended in a solution containing 50% PBS and 50% BD Matrigel™ Matrix without phenol red (catalog number 356237, BD Biosciences, Bedford, Mass., USA). A 0.1 mL of cell suspension containing 3×10^5 cells was inoculated subcutaneously into the left flank of mice. When tumors were palpable, mice bearing tumors with acceptable morphology and size were randomized to produce groups balanced with respect to mean and range of tumor sizes and body weight. Treatments were initiated on the day of randomization. Therapeutic intervention study was conducted to evaluate the effect of CDD866, either alone or in combination with anti-cancer agents. CDD866 was administered at 20 mg/kg s.c., once or twice weekly in a volume of 5 mL/kg. Cisplatin was administered at 1 mg/kg i.p. twice a week. Everolimus was administered at 5 mg/kg p.o. once daily. In the combination groups, cisplatin or everolimus treatment was combined with once or twice weekly subcutaneous treatment of CDD866, respectively. Body weight and tumor volume were measured 2 to 3 times per week. At the end of the experiment, the mice were euthanized with CO2, and tumor, tibialis anterior, gastrocnemius-soleus-plantaris complex, quadriceps were collected and weighed.
(§3) Values are expressed as mean±SEM. Statistical analysis was carried out using Sidak's multiple comparison test following analysis of variance to compare the treatment groups to the control groups (non-tumor and tumor-bearing), anti-cancer agent alone (cisplatin or everolimus) or CDD866 alone in the therapeutic intervention study, and Dunn's multiple comparisons test for time-to-progression study. Differences were considered to be significant when the probability value was <0.05. Statistical analyses were performed by GraphPad Prism (GraphPad Software, Inc., La Jolla, Calif., USA). Body weight was expressed as % change from day 0 as the start of treatment. Tumor volumes in cubic mm were calculated according to the formula (length×width^2)/2. Muscle weight was normalized to the body weight on the day of cell inoculation (initial body weight) and then expressed as % change from the non-tumor control group.

[2] = system: CT-26 mouse colon cancer-induced cachexia; assay: Time-to-progression study in CT-26 mouse colon cancer cachexia; format: in vivo; conditions: for time-to-progression (median days elapsed until an interruption criterion): everolimus combination study, after randomization and treatment start, CDD866 twice weekly; for time-to-progression (days until body weight loss 20% or tumor volume 1,500 mm^3): cisplatin combination study, CDD866 once weekly
Procedure: Time-to-progression study was performed as a follow-up to assess if the combination of CDD866 and cisplatin or everolimus slows progression of cancer cachexia to the interruption criteria which was defined by body weight loss reaching to 20% or tumor volume exceeding 1,500 mm^3. The treatment regimen was the same as used in the therapeutic intervention study. Body weight and tumor volume were measured 2 to 3 times per week in the first 2 weeks and then every day until the end of experiment. The mice were euthanized with CO2, when body weight loss was close to 20% or tumor volume exceeded 1,500 mm^3.
as §3
Extensive tumor growth and subsequent body weight loss are important predictors of mortality in cancer patients. We therefore wanted to evaluate whether the combination of CDD866 and cisplatin has an impact on the length of survival. For ethical reason we abstained from classical survival studies. Instead, each mouse was individually euthanized when experiencing either a body weight loss exceeding 20% of initial body weight, or reaching a tumor volume of 1,500 mm^3, determined as time-to-progression.

non-tumor bearing mice = assay: Therapeutic intervention study, non-tumor bearing (healthy control) mice; format: in vivo, mouse; conditions: for weight of tibialis anterior, gastrocnemius-soleus-plantaris complex and quadriceps muscles in non-tumor bearing group / body weight gain in non-tumor bearing group: everolimus study; for body weight gain in non-tumor bearing group: up to day 14, CDD866 20 mg/kg s.c. twice weekly, everolimus 5 mg/kg p.o. once daily; for body weight in healthy control animals: cisplatin study, non-tumor mice
Procedure: as §1, §2, §3

[3] = cisplatin study, CT-26 tumor-bearing mice
[4] = cisplatin study, CT-26 tumor-bearing mice, normalized to initial body weight, versus non-tumor control

## CO[C@H]1C[C@@H]2CC[C@@H](C)[C@@](O)(O2)C(=O)C(=O)N2CCCC[C@H]2C(=O)O[C@H]([C@H](C)C[C@@H]2CC[C@@H](OCCO)[C@H](OC)C2)CC(=O)[C@H](C)/C=C(\C)[C@@H](O)[C@@H](OC)C(=O)[C@H](C)C[C@H](C)/C=C/C=C/C=C/1C [everolimus, (1R,9S,12S,15R,16E,18R,19R,21R,23S,24E,26E,28E,30S,32S,35R)-1,18-d ihydroxy-12-{(1 R)-2-[(1S,3R,4R)-4-(2-hydroxyethoxy)-3-methoxycyclohexyl]-1-methylethyl}-19,30-dimethoxy-15,17,21,23,29,35-hexamethyl-11,36-dioxa-4-aza-tricyclo[30.3.1.04,9]hexatriaconta-16,24,26,28-tetraene-2,3,10,14,20-pentaone]
[1]; everolimus study
  CT-26 tumor growth: slowed CT-26 tumor growth
  CT-26 tumor weight: significantly reduced
  CT-26-induced loss in body weight: completely prevented
  CT-26-induced muscle weight loss: significantly reduced
[2]
  time-to-progression (median days elapsed until an interruption criterion): 23 days
non-tumor bearing mice
  weight of tibialis anterior, gastrocnemius-soleus-plantaris complex and quadriceps muscles in non-tumor bearing group: not affected
  body weight gain in non-tumor bearing group: not affected significantly

## N.N.[Cl][Pt][Cl] [cisplatin, cis-diamminedichloro-platinum(II)]
[1]; [3]
  tumor progression / CT-26 tumor volume and weight: reduced CT-26 tumor weight to similar levels
[1]; [4]
  gastrocnemius muscle weight loss: 25%
  tibialis anterior muscle wasting (muscle loss): 34%
[1]; cisplatin study
  body weight loss (of initial body weight): 20%
[2]
  time-to-progression (days until body weight loss 20% or tumor volume 1,500 mm^3): 12 days
non-tumor bearing mice
  body weight in healthy control animals: did not affect body weight

## CDD866: murinized version of bimagrumab, where the human Fc region of the antibody has been replaced by a mouse Fc
[1]; [3]
  tumor progression / CT-26 tumor volume and weight: neither accelerated tumor progression
[1]; [4]
  gastrocnemius muscle weight loss: 13%
[1]; cisplatin study
  body weight loss (of initial body weight): 3%
[1]; everolimus study
  CT-26 tumor weight: no significant effect
  CT-26-induced loss in body weight: completely prevented
  CT-26-induced muscle weight loss: significantly reduced
[2]
  time-to-progression (days until body weight loss 20% or tumor volume 1,500 mm^3): 16 days
  time-to-progression (median days elapsed until an interruption criterion): 21 days
non-tumor bearing mice
  body weight in healthy control animals: marked body weight gain
  weight of tibialis anterior, gastrocnemius-soleus-plantaris complex and quadriceps muscles in non-tumor bearing group: significantly increased
  body weight gain in non-tumor bearing group: increased significantly
